Test results: ChEMBL document CHEMBL1201862, “PubChem BioAssay data set” (2004)
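Test compounds were applied to cells in 96-well plates for 48 hours at 5 doses. Here, GI50 denotes the concentration required for 50% inhibition of growth.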 The source made the active and inactive calls. Rule as the data show it: active = GI50 up to about 1.1 µM and inactive = higher.

Key:
Experiment in all cases: growth of human tumour cells (NCI), 48 h
PC-3 = system: PC-3
786-0 = system: 786-0
EKVX = system: EKVX
ACHN = system: ACHN
MDA-N = system: MDA-N
LOX IMVI = system: LOX IMVI
U-251 = system: U-251
NCI/ADR-RES = system: NCI/ADR-RES
SF-268 = system: SF-268
UO-31 = system: UO-31
SK-MEL-2 = system: SK-MEL-2
MCF7 = system: MCF7
SR = system: SR
NCI-H23 = system: NCI-H23
M14 = system: M14
SNB-19 = system: SNB-19
MDA-MB-435 = system: MDA-MB-435
MOLT-4 = system: MOLT-4
SNB-75 = system: SNB-75
NCI-H522 = system: NCI-H522

Measured: GI50

O=C1/C(=C/c2cccs2)NC(=S)N1CN1CCCC(CO)C1 (configuration not stated)
inactive: PC-3 > 100 µM | 786-0 > 100 µM | EKVX > 100 µM | ACHN > 100 µM | MDA-N > 100 µM | LOX IMVI > 100 µM | U-251 > 100 µM | NCI/ADR-RES > 100 µM | SF-268 > 100 µM | UO-31 > 100 µM | SK-MEL-2 > 100 µM | MCF7 > 100 µM | SR > 100 µM | NCI-H23 > 100 µM | M14 > 100 µM | SNB-19 > 100 µM | MDA-MB-435 > 100 µM | MOLT-4 > 100 µM | SNB-75 > 100 µM

CC1OC(OC2C(O[C@H]3CC[C@@]4(C)C(=CC[C@H]5[C@@H]6C[C@@H]7O[C@]8(CC[C@@H](CO)CO8)[C@@H](C)[C@@H]7[C@@]6(C)CC[C@@H]54)C3)OC(CO)C(O)C2OC2OC(CO)C(O)C(O)C2O)C(O)C(O)C1O (some centres not stated)
inactive: PC-3 1.9 µM | 786-0 1.9 µM | EKVX 2.07 µM | ACHN 1.73 µM | MDA-N 1.68 µM | LOX IMVI 1.85 µM | U-251 1.79 µM | NCI/ADR-RES 1.97 µM | SF-268 1.85 µM | UO-31 2.52 µM | SK-MEL-2 2.03 µM | MCF7 1.77 µM | NCI-H23 2.01 µM | NCI-H522 1.72 µM | M14 2.04 µM | SNB-19 2.02 µM | MDA-MB-435 2.01 µM | SNB-75 1.58 µM

CCOC(=O)Oc1ccc2c(c1)c(=O)c1c(NCCN(CC)CC)ccc3nnn2c31
inactive: PC-3 2.19 µM | EKVX 6.41 µM | MDA-N 2.94 µM | LOX IMVI 1.18 µM | U-251 1.73 µM | NCI/ADR-RES 2.39 µM | SF-268 1.43 µM | SK-MEL-2 13.2 µM | NCI-H23 2.48 µM | M14 5.2 µM | SNB-19 1.21 µM | MDA-MB-435 3.67 µM
active: 786-0 0.488 µM | ACHN 0.406 µM | UO-31 0.165 µM | MCF7 0.392 µM | SR 0.113 µM | NCI-H522 0.69 µM | MOLT-4 < 0.0166 µM

NC12c3c4cccc3Oc3cccc(c31)Oc1cccc(c12)O4
inactive: PC-3 > 50 µM | 786-0 > 50 µM | EKVX > 50 µM | ACHN > 50 µM | MDA-N > 50 µM | U-251 > 50 µM | NCI/ADR-RES > 50 µM | SF-268 > 50 µM | UO-31 > 50 µM | SK-MEL-2 > 50 µM | MCF7 > 50 µM | SR > 50 µM | NCI-H23 > 50 µM | NCI-H522 17.7 µM | M14 > 50 µM | SNB-19 > 50 µM | MDA-MB-435 > 50 µM | MOLT-4 > 50 µM | SNB-75 > 50 µM

O=[N+]([O-])c1cccc(-c2nc(-c3ccccc3)c(-c3ccccc3)[nH]2)c1
inactive: PC-3 > 100 µM | 786-0 > 100 µM | EKVX > 100 µM | MDA-N > 100 µM | LOX IMVI > 100 µM | U-251 > 100 µM | NCI/ADR-RES > 100 µM | SF-268 > 100 µM | UO-31 > 100 µM | SK-MEL-2 > 100 µM | MCF7 > 100 µM | SR > 100 µM | NCI-H23 > 100 µM | NCI-H522 > 100 µM | M14 > 100 µM | SNB-19 > 100 µM | MDA-MB-435 > 100 µM | MOLT-4 > 100 µM

CCCCCCCCCCOC1C(C(C)OCCCN(C)C)OC2OC3(CCCCC3)OC21 (configuration not stated)
inactive: PC-3 12.4 µM | 786-0 16.5 µM | EKVX 18.2 µM | ACHN 17.1 µM | MDA-N 4.94 µM | LOX IMVI 1.93 µM | U-251 14.5 µM | NCI/ADR-RES 17 µM | SF-268 15.3 µM | UO-31 17.9 µM | SK-MEL-2 15.8 µM | MCF7 26.2 µM | NCI-H23 10.2 µM | NCI-H522 17.9 µM | M14 3.33 µM | SNB-19 12.4 µM | MDA-MB-435 16.2 µM | MOLT-4 12.9 µM | SNB-75 5.48 µM

O=C1/C(=C/c2n[nH]cc2-c2ccc(Cl)cc2)C(=O)N(c2ccccc2)C1c1ccccc1 (configuration not stated)
inactive: PC-3 6.92 µM | 786-0 17.2 µM | EKVX 20.7 µM | ACHN 20.1 µM | MDA-N 14 µM | LOX IMVI 14.3 µM | U-251 19.9 µM | NCI/ADR-RES 21.6 µM | SF-268 13.7 µM | UO-31 18.9 µM | SK-MEL-2 15.2 µM | MCF7 25.9 µM | SR 11.8 µM | NCI-H23 13.3 µM | NCI-H522 7.74 µM | M14 12.9 µM | SNB-19 27.4 µM | MDA-MB-435 14.9 µM | MOLT-4 16.9 µM

O=C1NC(=O)C2=C1CCC2O (configuration not stated)
inactive: PC-3 > 100 µM | 786-0 > 100 µM | EKVX > 100 µM | ACHN > 100 µM | MDA-N > 100 µM | LOX IMVI > 100 µM | U-251 > 100 µM | NCI/ADR-RES > 100 µM | SF-268 > 100 µM | UO-31 > 100 µM | SK-MEL-2 > 100 µM | MCF7 > 100 µM | SR > 100 µM | NCI-H23 > 100 µM | M14 > 100 µM | SNB-19 > 100 µM | MDA-MB-435 > 100 µM | MOLT-4 > 100 µM | SNB-75 > 100 µM

CCN(CCO)CC1COc2ccccc2O1 (configuration not stated)
inactive: PC-3 > 100 µM | 786-0 > 100 µM | EKVX > 100 µM | ACHN > 100 µM | MDA-N > 100 µM | LOX IMVI > 100 µM | U-251 > 100 µM | NCI/ADR-RES > 100 µM | SF-268 > 100 µM | UO-31 > 100 µM | MCF7 > 100 µM | SR > 100 µM | NCI-H23 > 100 µM | NCI-H522 > 100 µM | M14 > 100 µM | MDA-MB-435 > 100 µM | MOLT-4 > 100 µM

CCCC(=O)N1CCN(c2ccc3c(c2)OC(C)O3)CC1 (configuration not stated)
inactive: PC-3 > 100 µM | 786-0 > 100 µM | EKVX > 100 µM | ACHN > 100 µM | MDA-N > 100 µM | U-251 > 100 µM | NCI/ADR-RES > 100 µM | SF-268 > 100 µM | UO-31 > 100 µM | MCF7 > 100 µM | SR > 100 µM | NCI-H23 > 100 µM | NCI-H522 > 100 µM | M14 > 100 µM | SNB-19 > 100 µM | MDA-MB-435 > 100 µM | MOLT-4 > 100 µM | SNB-75 15.4 µM

CC(=O)N1C(=O)c2cc3ccccc3cc21
inactive: PC-3 > 100 µM | 786-0 > 100 µM | EKVX > 100 µM | ACHN > 100 µM | MDA-N > 100 µM | LOX IMVI > 100 µM | U-251 > 100 µM | NCI/ADR-RES > 100 µM | SF-268 > 100 µM | UO-31 > 100 µM | SK-MEL-2 > 100 µM | MCF7 31.3 µM | SR > 100 µM | NCI-H23 95.5 µM | M14 > 100 µM | SNB-19 > 100 µM | MDA-MB-435 > 100 µM | SNB-75 92.5 µM

Cc1c(C)c2c(c(N)c1C#N)C(=O)N(NC(=S)Nc1ccccc1)C2=O
inactive: PC-3 > 100 µM | 786-0 44.1 µM | EKVX > 100 µM | ACHN 50 µM | MDA-N > 100 µM | U-251 > 100 µM | NCI/ADR-RES 71.3 µM | SF-268 31.4 µM | UO-31 44.4 µM | SK-MEL-2 > 100 µM | MCF7 > 100 µM | SR 22.4 µM | NCI-H23 > 100 µM | NCI-H522 52.7 µM | M14 > 100 µM | SNB-19 56.6 µM | MDA-MB-435 > 100 µM | MOLT-4 20.3 µM | SNB-75 39 µM

C[NH+]1[C@@H](Cc2ccccc2)C(=O)O[B-]1(F)c1ccccc1 (some centres not stated)
inactive: PC-3 > 100 µM | 786-0 > 100 µM | EKVX > 100 µM | ACHN > 100 µM | MDA-N > 100 µM | U-251 > 100 µM | NCI/ADR-RES > 100 µM | SF-268 > 100 µM | UO-31 > 100 µM | MCF7 > 100 µM | SR > 100 µM | NCI-H23 > 100 µM | M14 > 100 µM | SNB-19 > 100 µM | MDA-MB-435 > 100 µM | MOLT-4 > 100 µM | SNB-75 > 100 µM

O=C(N/N=C\c1ccc([N+](=O)[O-])s1)c1ccncc1
inactive: PC-3 11.6 µM | 786-0 6.67 µM | EKVX 20.7 µM | ACHN 18.3 µM | MDA-N 14.1 µM | U-251 17.7 µM | NCI/ADR-RES 22.8 µM | SF-268 13.6 µM | UO-31 17.2 µM | SK-MEL-2 18.2 µM | MCF7 3.02 µM | SR 5.65 µM | NCI-H23 16.2 µM | NCI-H522 4.75 µM | M14 11.6 µM | SNB-19 33.4 µM | MDA-MB-435 18.4 µM | MOLT-4 19.9 µM | SNB-75 19.4 µM

Cc1ccc(S(=O)(=O)N(CCNC(=O)c2cccc(O)c2O)c2cc3c4c(c2)Oc2cccc5c2C4(C)c2c(cccc2O3)O5)cc1
inactive: PC-3 36 µM | 786-0 > 100 µM | EKVX 37.4 µM | ACHN > 100 µM | MDA-N 6.93 µM | LOX IMVI 6.08 µM | U-251 8.83 µM | NCI/ADR-RES 2.54 µM | SF-268 15.1 µM | UO-31 > 100 µM | SK-MEL-2 > 100 µM | MCF7 29.9 µM | SR 14.6 µM | NCI-H23 > 100 µM | M14 > 100 µM | SNB-19 > 100 µM | MDA-MB-435 5.85 µM | MOLT-4 > 100 µM | SNB-75 10.9 µM
